Source: patent US6417180B1, “Zinc finger-reactive antimicrobial compounds” (priority 1998, dated 2002)

Key:
[1] = target: T1, B. subtilis pol III (Bacillus subtilis, UniProt P13267); test: Reconstitution of zinc-deficient inactive polymerase with ZnCl2/DTT; type: biochemical; details: pol III inactivated by MMTS; 0.01 mM ZnCl2 and 0.01 mM DTT, 25° C., 12 hours
T1 construct: the so-called wild-type pol III, was identical to the native enzyme found in B. subtilis; made in house; host or cells: E. coli AR120, plasmid pKC30/polC
Experimental: At 30 minute intervals, samples were removed and assayed for pol activity.

[2] = target: T1, B. subtilis pol III; test: 65Zn release from labeled pol III by MMTS (Sephadex G-25 separation); type: biochemical; details: 60 minutes, 0° C.
Experimental: Pol III was labeled by growing bacteria transformed with the above-described pol III expression plasmids in the presence of ^65Zn. LB expression medium was first depleted of divalent trace metals by mixing the medium with 0.3 volume of Chelex-Na (Bio-Rad) for 24 hours at 0° C. The depleted medium was then supplemented with 0.1 mM MgCl2 to support a level of E. coli growth compatible with pol III expression. E. coli AR120 transformed with the pKC30/polC vector was grown at 30° C. in this magnesium-supplemented medium. When the culture reached an absorbance of 0.5 ([…], 1 cm path length), 10 ml of the culture was added to one liter of the zinc-depleted, magnesium-supplemented medium, which further included [^65Zn]Cl2 (New England Nuclear; specific activity of 2.7 mCi/μmole) to a radioactivity level of 1.1 μCi/ml medium. Incubation was continued until the culture reached an absorbance of 0.75. […]
To remove non-specifically bound ^65Zn and exogenous thiols, the pol III was dialyzed as described in Example 1 above, and the labeled protein was further dialyzed with HNE buffer (10 mM HEPES [pH 7.6], 100 mM NaCl, and 0.1 mM EDTA) to remove exogenous thiols. […] The fraction eluted with each step was analyzed by liquid scintillation counting to determine the amount of protein-bound ^65Zn (void volume) and the amount of free ^65Zn (included volume).

[3] = target: T1, B. subtilis pol III; test: Radioactive zinc content of 65Zn-labeled pol III after treatment with zinc-removing compound; type: biochemical; details: 0.2 mM MMTS, one hour
Experimental: (§1) 0.2 nanomoles of pol III was mixed in 0.1 ml of HNE buffer (10 mM HEPES, 100 mM NaCl, and 10% glycerol [pH 7.6]) containing 0.3 mM Compound 20, and the mixture was incubated at 25° C. for one hour. The pol III was removed from Compound 20 by passage through a Sephadex G-25 spin column, and the enzyme assayed for polymerase activity and for its content of radioactive zinc (see procedures described above).
Ejection of Zinc by Treatment of Coordinating Thiolates with MMTS. The compound MMTS is described in Example 2 above. 0.2 nanomoles of ^65Zn-labeled B. subtilis pol III was incubated with HNE buffer with or without 0.2 mM MMTS for one hour, and the samples assayed as described for the pol III treatment with Compound 20.

[4] = target: T1, B. subtilis pol III; test: Polymerase activity of pol III after treatment with zinc-removing compound; type: biochemical; details: 0.2 mM MMTS, one hour
Experimental: (§2) Polymerase activity was determined as described in Barnes et al., Meth. Enzymol., 262:35-42, 1995, using activated calf thymus DNA (Worthington) as template and primer and [^3H]dTTP as the substrate. One unit of polymerase activity was defined as the activity which catalyzes the incorporation of one nanomole of [^3H]dTMP in 10 minutes at 30° C. For determination of the KM of the polymerase for DNA, the concentration of activated calf thymus DNA was varied during assay from 0-0.8 mg/ml. For determination of the KM for dGTP, incorporation of [^3H] dTMP was followed as a function of dGTP concentration (0-0.5 mM), and the values for incorporation were corrected for dGTP-independent, background incorporation.
as §1
Ejection of Zinc by Treatment of Coordinating Thiolates with MMTS. The compound MMTS is described in Example 2 above. […]

[5] = target: T2, H909A B. subtilis pol III (Bacillus subtilis, UniProt P13267, H909A); test: TMAU sensitivity of polymerase activity, H909A mutant; type: biochemical; details: H909A enzyme
T2 construct: The H909A enzyme, although expressed as a full-length protein, was not readily produced in an amount sufficient for metal analysis; made in house; host or cells: E. coli SG101, plasmid pSGA04
Experimental: as §2
(§3) An oligonucleotide-based system (Altered Sites, Promega) was used to introduce the mutations into the segment of polC encoding the putative zinc finger. […]
(§4) Each of the five purified mutant enzymes of Table I was analyzed directly, in its native, undialyzed form, to assess the impact of the respective mutation on (1) exonuclease and polymerase activity; (2) affinity for exonuclease and polymerase substrates; and (3) sensitivity of the polymerase activity to TMAU, a dGTP analog which inhibits the pol III of Gram-positive eubacteria (Wright et al., Pharmac. Therap., 47:447-497, 1990).

[6] = target: T3, C915A B. subtilis pol III (Bacillus subtilis, UniProt P13267, C915A); test: TMAU sensitivity of polymerase activity, C915A mutant; type: biochemical; details: C915A enzyme
T3 construct: Each of the three full-length mutants (C912A, C915A, and C940A); made in house; host or cells: E. coli SG101, plasmid pSGA04
Experimental: as §2, §3, §4

[7] = target: T4, C940A B. subtilis pol III (Bacillus subtilis, UniProt P13267, C940A); test: TMAU sensitivity of polymerase activity, C940A mutant; type: biochemical; details: C940A enzyme
T4 construct: Each of the three full-length mutants (C912A, C915A, and C940A); made in house; host or cells: E. coli SG101, plasmid pSGA04
Experimental: as §2, §3, §4

[8] = target: T5, Wildtype B. subtilis pol III (Bacillus subtilis, UniProt P13267); test: TMAU sensitivity of polymerase activity, wild-type enzyme; type: biochemical
T5 construct: made in house; host or cells: E. coli SG101, plasmid pSGA04
Experimental: as §2
Tagged wild-type and mutant forms of pol III were obtained at greater than 95% homogeneity using the procedure of Example 1 above. The proteins were then subjected to EDTA-based dialysis, and analyzed for zinc content as described in Example 1.
as §4

[9] = system: methicillin-sensitive S. aureus (ATCC No. 29213); test: Thigh infection in neutropenic ICR/Swiss mice (Example 10); type: in vivo; details: 40 mg/kg i.v. at 2, 6, 12, 18 hours post-infection; 24 hours after infection; 100× diluted homogenate; saline controls about 500
Experimental: Before infection with test bacteria, six six-week old pathogen-free ICR/Swiss mice are rendered neutropenic (less than 100 neutrophils per milliliter of blood) by intraperitoneal injection of two doses of cyclophosphamide. The first injection is made at 150 mg/kg four days before bacterial infection, and the second injection is made at 100 mg/kg one day before bacterial infection. Neutropenia is induced so that a wide variety of bacteria can be used for the subsequent infection.
Bacterial infection for each mouse is performed by inoculating 10^6 cfu of methicillin-sensitive S. aureus (ATCC No. 29213) in 100 μl of media into the right thigh muscle. The compound and control mixtures are administered intravenously into the tail vein of the animal at 2, 6, 12, and 18 hours post-infection. Two mice received 50 μl of a negative control mixture of physiological saline at each time point. Another pair of mice received a positive control mixture of 40 mg/kg body weight vancomycin in saline at each time point. The last two mice received 40 mg/kg body weight of the candidate compound in saline at each time point.
At 24 hours after infection, all mice are sacrificed, and the right thigh muscle of each mice removed. […] After incubating at 37° C. for 24 hours, the number of colonies on each plate is counted. […]

[10] = system: S. aureus; details: 40 mg/kg intravenously every four hours; cited from earlier work

SMILES: CSS(C)(=O)=O [MMTS, methylmethanethio-sulfonate]
- reactivation of pol activity after treatment [1]: No reactivation
- 65Zn label released from pol III ([2]; 0.01 mM MMTS): about 50%
- 65Zn label released from pol III ([2]; three higher concentrations (0.03, 0.10, 0.3 mM MMTS)): greater than 95%
- radioactive zinc content relative to control [3]: less than 2 % of the control
- pol III activity relative to control [4]: less than 1 % of the control

SMILES: O=c1cc(Nc2ccc3c(c2)CCC3)[nH]c(=O)[nH]1 [TMAU]
- IC50 [5]: 4 µM
- IC50 [6]: 2.9 µM
- IC50 [7]: 4 µM
- IC50 [8]: 4.1 µM

SMILES: CN[C@H](CC(C)C)C(=O)N[C@H]1C(=O)N[C@@H](CC(N)=O)C(=O)N[C@H]2C(=O)N[C@H]3C(=O)N[C@H](C(=O)N[C@H](C(=O)O)c4cc(O)cc(O)c4-c4cc3ccc4O)[C@H](O)c3ccc(c(Cl)c3)Oc3cc2cc(c3O[C@@H]2O[C@H](CO)[C@@H](O)[C@H](O)[C@H]2O[C@H]2C[C@](C)(N)[C@H](O)[C@H](C)O2)Oc2ccc(cc2Cl)[C@H]1O [vancomycin]
- colonies from thigh muscle homogenate [9]: about 40 colonies on each plate
- reduction in S. aureus proliferation compared with control thighs [10]: two to four
